The text below walks through data of patent US9913801B2 (YOUR ENERGY SYSTEMS, LLC, priority 2013, dated 2018).

Assay [1] has as its system Mycobacterium tuberculosis. Particulars: at 10 millimolar.
The conditions of assay [2]: rat liver, cited from earlier work.

Read-outs that look alike come from different tables or passages of the source.

As for `CC(=O)N[C@@H](CS)C(=O)O` [NAC, N-Acetyl Cysteine], the “Mycobacterium tuberculosis CFU/ml” value in assay [1] was 8,000 CFU/ml.

As to `N[C@@H](CCC(=O)N[C@@H](CS)C(=O)NCC(=O)O)C(=O)O` [Plain glutathione, glutathione], the removal of toxin in assay [2] (intravenous) was 64%; in assay [2] (oral), 0%.
